“Also recorded” adds a separate entry of the source. Like-named read-outs stand apart in the source and are kept apart here.
Key:
[1] = tested on: A375 melanoma; assay: in vitro cytotoxicity (antiproliferative activity) on A375 melanoma line; assay type: cell-based, human; conditions: for IC50: Homo sapiens, A-375
Source text: Antiproliferative activity was first measured on a cancer cell line of human origin, A375 melanoma.
Imiquimod and fotemustine (Muphoran®) are used as controls in this study.
(§1) Several human carcinoma cell lines were used: • Lines A375, M4Be, RPMI7591 from human melanoma. • Line LS174T from colon carcinoma. • Line A 2780 from ovarian carcinoma. • The Raji line from B lymphoma. • Line MCF7 from breast carcinoma.
IC50 (concentration of the product tested which inhibits 50% of the maximum cell proliferation observed in the control wells) is determined graphically from the curve of the percentage of cell proliferation as a function of concentration of the product tested.

[2] = tested on: RPMI7591 (melanoma); assay: in vitro cytotoxicity on RPMI7591 melanoma line; assay type: cell-based; conditions: Homo sapiens; Table 2; unit inferred; read-out: IC50 RPMI7591
Source text: as §1

[3] = tested on: MCF7 (breast cancer); assay: in vitro cytotoxicity on MCF7 breast cancer line; assay type: cell-based; conditions: Homo sapiens, Table 2, unit inferred
Source text: as §1

[4] = tested on: Raji (B lymphoma); assay: in vitro cytotoxicity on Raji B lymphoma line; assay type: cell-based, human; conditions: Homo sapiens, Raji; Table 2; unit inferred
Source text: as §1

[5] = determination of the lethal dose 50 (LD50) in the mouse; assay type: in vivo
[6] = in vivo; conditions: rat, iv, 5 mg/kg
Method: (§2) Methods of assaying compounds EAPB0203, EAPB0503 and EAPB0603 by high performance liquid chromatography and detection by mass spectrometry (LC/ESI-MS) were developed and validated in human and rat plasmas. Pre-treatment of the samples consists of a liquid solid extraction preceded by precipitation of plasma proteins in acid medium. The chromatographic column used is C8 Zorbax eclipse XDB and the mobile phase (gradient) a mixture of acetonitrile and formate buffer (pH 3) (flow rate, 0.8 ml/min). The […] from 92 to 113%. The extraction coefficients are higher than 72%. The quantification limit is 5 μg/l for all analytes. Stability tests of the compounds in the matrices were also carried out. These methods were used to determine the pharmacokinetic parameters of compounds EAPB0203, EAPB0503 and EAPB0603 in the rat. The lethal doses 50% of compounds EAPB0203 and EAPB0503 are respectively 14.8 and 7.6 mg/kg.

[7] = lethal doses 50% reported in the pharmacokinetic study; assay type: in vivo; conditions: species and route not stated in the sentence (rat study)
Method: as §2

[8] = tested on: human T lines not infected by HTLV-I (CEM, Jurkatt, Molt-4 and HuT-78); assay: cell growth of human T lines not infected by HTLV-I (CellTiter 96, trypan blue exclusion); assay type: cell-based; conditions: 1 to 10 μM, 24-96 h
Method: (§3) FIG. 2: HTLV-I-positive and HTLV-I-negative malignant human cell lines are sensitive to EAPB0203, but activated or inactivated normal T lymphocytes are resistant. Effects of EAPB0203 on the growth of human T lines not infected by HTLV-I (CEM, Jurkatt, Molt-4 and HuT-78), HTLV-I-positive human T lines (HuT-102 and C8166, and MT2), and normal lymphocytes at rest or activated by PHA. The activated normal PBMC were supplemented with 2% PHA. EAPB0203 was added at the concentrations indicated in mole/l for 24-96 h. Cell growth is analyzed with the “CellTiter 96®” nonradioactive cell growth kit. The results are expressed as a percentage of the control (0.1% DMSO) and represent the mean of the results obtained in three independent experiments.
(§4) The in vitro activity of EAPB0203 on adult T-cell leukemia (ATL) transformed by retrovirus HTLV-I (HuT-102, MT2 . . . ) and malignant HTLV-I-negative T-cells (CEM, Jurkatt . . . ) was evaluated. Initially, the effect of EAPB0203 on cell growth of these lines was evaluated by two techniques, the nonradioactive “CellTiter 96®” cell growth kit and the trypan blue exclusion method.

[9] = tested on: leukaemic cells derived from two patients with ATL; assay: cell proliferation of leukaemic cells derived from patients with ATL; assay type: cell-based, human
[10] = tested on: normal lymphocytes activated or not activated by PHA; assay: growth of normal lymphocytes at rest or activated by PHA; assay type: cell-based, human; conditions: two healthy subjects
Method: as §3, §4

[11] = tested on: CEM and HuT-102 cells; HuT-102 and MT2 cells; assay: protein expression by western blot (caspases, Bcl-2 family, cell cycle regulators); assay type: cell-based, human
Source text: Proteinic cell extracts were obtained after various treatments and evaluation of the expression of certain proteins was studied by western blot.
Activation of the mitochondrial route is controlled by members of the Bcl-2 family. […] In the cell lines infected or not infected by HTLV-I, the effect of EAPB0203 on regulators of the cell cycle is studied.

[12] = tested on: treated cell lines; assay: mitochondrial route of apoptosis (Rhodamine 123 transmembrane potential, cytochrome C localization); assay type: cell-based, human
Source text: Mitochondria play a central role in apoptotic mechanisms. The first detectable cellular disturbance during the apoptotic process is a reduction in mitochondrial transmembrane potential.
Indeed, activation of the intrinsic mitochondrial route in the cells studied is shown.

[13] = A375, comparison of IC50 values

SMILES: CNc1nc2ccccc2n2c(CCc3ccccc3)cnc12 [EAPB0203, N-methyl-1-(2-phenylethyl)imidazo[1,2-a]quinoxalin-4-amine]
- activity times higher than that of fotemustine [1, 13]: 110 times
- activity times higher than that of imiquimod [1, 13]: 50 times
- IC50 ([1]; A375 melanoma line, Table 1, IC50 and standard deviation, read-out: IC50): 1.57 µM
- IC50 ([1]; Table 2, unit inferred, read-out: IC50 A375): 1.57 ± 0.56 µM
- IC50 [2]: 4.23 ± 0.48 µM
- IC50 [3]: 1.08 ± 0.46 µM
- IC50 [4]: 6.23 ± 0.06 µM
- apparent toxicity after 48 h at the highest doses [5]: did not display any apparent toxicity
- LD50 at 48 h ([5]; in vivo, doses 30, 300 and 450 mg/kg, 48 h): > 450 mg/kg
- Vd [6]: 10.6 L/kg
- area under the curve of plasma concentrations [6]: 870 ng·h/mL
- clearance [6]: 48.3 mL/min/kg
- half-life [6]: 2.6 h
- lethal doses 50% [7]: 14.8 mg/kg
- growth of malignant T-cells not associated with HTLV-I [8]: sensitive; also recorded: progressive, dose-dependent inhibition
- cell proliferation of leukaemic cells from ATL patients [9]: induced inhibition of cell proliferation
- growth of normal lymphocytes [10]: completely resistant
- caspases (cleavage of PARP, procaspase-3, -8, -9) ([11]; CEM and HuT-102 cells, western blot): activation of caspases
- expression of proteins p21 and p53 ([11]; HuT-102 and MT2 cells (HTLV-I-positive)): significant increase
- apoptosis under co-treatment by caspase inhibitor zVAD ([11]; co-treatment with zVAD): partial protection
- expression of IAP-1 proteins and bcl-xL ([11]; western blot): significant reduction
- mitochondrial transmembrane potential ([12]; Rhodamine 123, flow cytometry): drop in the mitochondrial transmembrane potential
- sub-cellular localization of cytochrome C ([12]; treated cell lines): presence of cytochrome C in the cytoplasm

— patent US8378098B2, “Imidazol[1,2-α]quinoxalines and derivatives for the treatment of cancers” (Universite de Montpellier I, priority 2007, dated 2013)
